In patent US20260234107A1, “TRYPTAMINES AND METHODS OF TREATING MOOD DISORDERS” (priority 2022, published 2026):
Read-outs that look alike come from different tables or passages of the source.

Tests used:
5-HT2A [1] = molecular target: T1, 5-HT2A (Homo sapiens, UniProt P28223); assay: FLIPR Ca2+ flux agonist assay at 5-HT2A; type: cell-based; set-up: host or cells: HEK293; conditions: for 5-HT2A % Act @ Max Dose: HEK293, max dose
5-HT2A [2] = molecular target: T1, 5-HT2A; assay: 5-HT2A receptor radioligand binding ([3H]ketanserin)
Experimental: The binding affinities of disclosed compounds at the ketanserin binding site of the 5-HT2A receptor were determined in radioligand binding experiments.
Method. Affinity of the test compounds for the 5-HT2A receptor was determined in radioligand binding experiments with [^3H]ketanserin by WuXi AppTec (Hong Kong) Limited, using methods adapted from the literature and under conditions described in Table 4.

[3] = Plasma pharmacokinetics in mice after subcutaneous administration; type: in vivo, male C57BL/6 mice; conditions: SC 10 mg/kg
Text: Animals. […] Four mice were housed in each cage. […] All animals were provided laboratory rodent diet. […] Animals were randomly assigned to treatment groups.

5-HT2B = molecular target: T2, 5-HT2B (Homo sapiens, UniProt P41595); assay: FLIPR Ca2+ flux agonist assay at 5-HT2B; type: cell-based; conditions: for 5-HT2B % Act @ Max Dose: HEK293, max dose
T2 construct: host or cells: HEK293

[4] = tested on: monoamine oxidase A and B (MAO-A and MAO-B); assay: Stability in the presence of monoamine oxidases (human liver mitochondria preparation); set-up: half-life / microsomal CLint: dose or concentration left out as unconfirmed; conditions: for stability in the presence of MAO (in words): human liver mitochondria preparation; for Remaining (t = 60 min) / half-life / microsomal CLint: human liver mitochondria; for half-life / microsomal CLint: human, pH 7.4
Experimental: Liver Mitochondria Incubations. Human liver mitochondria (Xenotech H0610.M) were used.

[5] = Metabolic stability in human liver microsomes (HLM); set-up: microsomal CLint / half-life: dose or concentration left out as unconfirmed; conditions: both, human, pooled human liver microsomes, pH 7.4
5-HT1A = molecular target: T3, 5-HT1A (Homo sapiens, UniProt P08908); assay: FLIPR Ca2+ flux agonist assay at 5-HT1A; type: cell-based; conditions: for 5-HT1A % Act @ Max Dose: Ca2+ flux, CHO cells
T3 construct: host or cells: CHO cells
T3 sequence (P08908 1-422): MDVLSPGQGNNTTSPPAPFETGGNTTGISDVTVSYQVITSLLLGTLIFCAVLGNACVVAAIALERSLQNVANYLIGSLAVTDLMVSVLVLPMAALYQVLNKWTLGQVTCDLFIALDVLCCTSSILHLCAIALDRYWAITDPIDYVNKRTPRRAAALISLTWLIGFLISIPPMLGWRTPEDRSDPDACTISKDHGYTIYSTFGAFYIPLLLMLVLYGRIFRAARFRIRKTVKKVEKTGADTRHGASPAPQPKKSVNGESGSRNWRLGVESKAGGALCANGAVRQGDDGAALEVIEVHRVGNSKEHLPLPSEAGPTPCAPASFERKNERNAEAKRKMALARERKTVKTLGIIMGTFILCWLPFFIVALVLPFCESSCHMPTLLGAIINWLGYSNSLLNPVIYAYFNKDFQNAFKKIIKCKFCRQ

[6] = Stability in rat brain homogenate; type: in vitro ADME, male Sprague Dawley rats; conditions: for half-life at 1 µM: male, Sprague Dawley; for half-life at 1 µM / % Compound Remaining (after 120 min): rat brain homogenate, 37° C., 1 μM
[7] = Stability in mouse brain homogenate; type: in vitro ADME, male CD-1 mice; conditions: for half-life at 1 µM: male, CD-1; for half-life at 1 µM / % Compound Remaining (after 120 min): mouse brain homogenate, 37° C., 1 μM
rat synaptosomes = assay: Serotonin (5-HT) release from rat synaptosomes; type: biochemical, Male Sprague-Dawley rats
Experimental: Disclosed compounds were assessed for their ability to release serotonin (5-HT) from […] (Table 9). Potency and efficacy for 5-HT release varied substantially depending on the specific compound. […] However, there was also substantial variability among 4-hydroxy compounds.
Synaptosome 5-HT Release Assay. Synaptosome release assays were conducted according to modifications of previously described procedures (Partilla et al. (2016). Interrogating the Activity of Ligands at Monoamine Transporters in Rat Brain Synaptosomes. In Neurotransmitter Transporters (pp. 41-52). Springer.). Briefly, synaptosomes were prepared from rat brains. Male Sprague-Dawley rats were rendered unconscious with CO2 and their brains were immediately removed. The cerebella were discarded and the whole brains (minus striatum) were placed in ice-cold 0.32 M sucrose (10 mL per brain) and gently homogenized by hand. The homogenate of each brain was centrifuged at 1,000×g at 4° C. for 10 mins and the resulting supernatant was diluted with ice-cold 0.32 M sucrose to a total volume of 10 mL to provide the synaptosome solution. Synaptosomes were then preloaded with 5 nM [^3H]5-HT in the presence of selective uptake inhibitors of DAT (50 nM GBR12935), NET (100 nM nomifensine), and VMAT2 (1 μM reserpine) in Krebs phosphate buffer (KPB). The incubations were allowed to reach equilibrium for 2 h at 25° C. For the release reactions, 425 μL of preloaded synaptosomes were added to test tubes containing 75 μL of test drugs diluted in KPB containing 1 mg/mL BSA. After 10 mins, the release reaction was stopped using a cell harvester by rapid vacuum filtration over GF/B filter paper presoaked in wash buffer (10 mM Tris-HCl, pH 7.4, 150 mM NaCl) and the filters were washed with additional wash buffer. Filters were dried for 1 h at 60° C. and retained radioactivity was quantified using a MicroBeta 2 liquid scintillation counter. The amount of retained radioactivity was inversely proportional to the extent of release.

5-HT2C receptor [8] = molecular target: T4, 5-HT2C receptor (Homo sapiens, UniProt P28335); assay: 5-HT2C receptor radioligand binding ([3H]mesulergine); conditions: for Ki: HEK293 stable cell line, 2 nM [3H]mesulergine; for binding to the 5-HT2C receptor (in words): compared with 5-HT2A receptor binding
T4 sequence (P28335 33-458): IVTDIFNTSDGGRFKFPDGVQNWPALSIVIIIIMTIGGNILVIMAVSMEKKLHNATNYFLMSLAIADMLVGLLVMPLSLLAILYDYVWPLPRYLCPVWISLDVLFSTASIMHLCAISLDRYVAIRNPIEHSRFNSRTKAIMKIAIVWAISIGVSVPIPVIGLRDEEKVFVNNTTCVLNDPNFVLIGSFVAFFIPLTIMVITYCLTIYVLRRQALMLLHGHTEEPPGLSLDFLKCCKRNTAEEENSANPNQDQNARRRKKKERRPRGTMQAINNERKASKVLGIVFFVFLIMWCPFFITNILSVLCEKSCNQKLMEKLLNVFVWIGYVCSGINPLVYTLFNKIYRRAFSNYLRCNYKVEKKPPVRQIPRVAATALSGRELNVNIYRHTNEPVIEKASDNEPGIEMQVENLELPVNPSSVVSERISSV
Experimental: The binding affinities of disclosed compounds at the mesulergine binding site of the 5-HT2C receptor were determined in radioligand binding experiments.
Method. Affinity of the test compounds for the 5-HT2C receptor was determined in radioligand binding experiments with [^3H]mesulergine by WuXi AppTec (Hong Kong) Limited, using methods adapted from the literature and under conditions described in Table 11.

5-HT2C receptor [9] = molecular target: T4, 5-HT2C receptor; assay: cell-based; type: cell-based; conditions: Ca2+ flux
[10] = mouse, plasma, male C57BL/6 mice
[11] = HEK293 stable cell line, 1 nM [3H]ketanserin, read-out: 5-HT2A Ki (nM) ([3H]Ketanserin)

T2 sequence (P41595 whole entry, species assumed): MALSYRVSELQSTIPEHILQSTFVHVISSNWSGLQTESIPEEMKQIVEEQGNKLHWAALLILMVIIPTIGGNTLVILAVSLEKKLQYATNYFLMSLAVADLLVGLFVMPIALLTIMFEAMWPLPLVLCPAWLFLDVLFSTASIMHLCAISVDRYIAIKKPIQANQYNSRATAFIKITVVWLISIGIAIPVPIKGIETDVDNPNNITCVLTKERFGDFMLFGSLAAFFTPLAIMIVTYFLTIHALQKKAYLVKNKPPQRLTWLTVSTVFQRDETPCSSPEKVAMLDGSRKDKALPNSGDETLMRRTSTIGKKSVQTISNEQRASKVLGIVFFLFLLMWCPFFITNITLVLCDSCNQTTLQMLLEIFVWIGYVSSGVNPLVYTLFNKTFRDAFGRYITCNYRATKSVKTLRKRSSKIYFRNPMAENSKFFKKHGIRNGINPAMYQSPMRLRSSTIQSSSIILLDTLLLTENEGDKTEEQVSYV
T1 sequence (P28223 whole entry): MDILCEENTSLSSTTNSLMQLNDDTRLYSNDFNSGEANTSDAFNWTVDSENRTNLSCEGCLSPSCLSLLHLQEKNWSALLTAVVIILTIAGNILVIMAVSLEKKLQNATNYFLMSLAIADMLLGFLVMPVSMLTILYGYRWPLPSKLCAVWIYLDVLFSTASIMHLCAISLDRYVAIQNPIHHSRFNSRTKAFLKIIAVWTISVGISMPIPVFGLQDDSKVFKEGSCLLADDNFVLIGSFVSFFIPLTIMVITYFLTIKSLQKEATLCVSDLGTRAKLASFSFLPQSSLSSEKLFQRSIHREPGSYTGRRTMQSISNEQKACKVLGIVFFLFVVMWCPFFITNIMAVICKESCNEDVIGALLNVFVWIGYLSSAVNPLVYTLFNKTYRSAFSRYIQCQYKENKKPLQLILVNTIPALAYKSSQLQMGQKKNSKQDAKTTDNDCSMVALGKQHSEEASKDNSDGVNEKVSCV

| SMILES | 5-HT2B % Act @ Max Dose (5-HT2B; Ca2+ flux) [%] | stability in the presence of MAO (in words) [4] | Remaining (t = 60 min) [4] [%] | half-life [4] [h] | microsomal CLint [4] [µL/min/mg] | half-life [5] [h] | microsomal CLint [5] [µL/min/mg] | EC50 (5-HT1A) [nM] | 5-HT1A % Act @ Max Dose (5-HT1A) [%] | half-life at 1 µM [6] [h] | % Compound Remaining (after 120 min) [6] [%] | half-life at 1 µM [7] [h] | % Compound Remaining (after 120 min) [7] [%] | EC50 (5-HT2A [1]) [nM] | 5-HT2A % Act @ Max Dose (5-HT2A [1]; Ca2+ flux) [%] | Ki (5-HT2A [2]; [11]) [nM] | EC50 (5-HT2B) [nM] | Ki (5-HT2C receptor [8]) [nM] | binding to the 5-HT2C receptor (in words) (5-HT2C receptor [8]) | EC50 (5-HT2C receptor [9]) [nM] | other results |
| --- | --- | --- | --- | --- | --- | --- | --- | --- | --- | --- | --- | --- | --- | --- | --- | --- | --- | --- | --- | --- | --- |
| Oc1cccc2[nH]cc(CCNC3CC3)c12 [Compound 4, 3-(2-(cyclopropylamino)ethyl)-1H-indol-4-ol] | 4.08 | intermediate stability | 72.7 | 1.91 | 20.2 | 1.36 | 17 | 6560 | 58.72 | 1.05 | 25.2 | 0.883 | 19.4 |  |  |  |  |  |  |  | EC50 (5-HT2A [1]; Ca2+ flux, HEK293, read-out: 5-HT2A EC50): 8.7 nM; Ki (5-HT2A [2]): 339 nM; peak plasma concentration compared with 5-F-DMT (in words) ([3]; mice): much higher peak concentrations than 5-F-DMT; AUC(0-t) [3, 10]: 665 ng·h/mL; Cmax [3, 10]: 1220 ng/mL; half-life [3, 10]: 0.62 h; Tmax ([3]; mouse, plasma, male C57BL/6 mice, read-out: Tmax): 0.25 h; agonism at 5-HT2B (in words) (5-HT2B; Ca2+ flux): did not; stability in rat brain homogenate (in words) [6]: intermediate stability; stability in mouse brain homogenate (in words) [7]: intermediate stability; EC50 (rat synaptosomes; rat synaptosomes preloaded with [3H]5-HT): 1250 nM; % Release @ Max Dose (10 μM) (rat synaptosomes; rat synaptosomes, 10 μM): 38.87% |
| CC(C)n1cc(CCN(C)C)c2c(O)cc(F)cc21 [Compound 10, 3-(2-(dimethylamino)ethyl)-6-fluoro-1-isopropyl-1H-indol-4-ol] | 1.99 | intermediate stability | 55.7 | 1.31 | 29.4 | 1.78 | 12.9 | > 100000 | 1.85 | 4.49 | 71.4 | > 4.82 | 80.9 | > 1000 | 1.28 | 1190 | > 10000 | 10.5 | potent binding to the 5-HT2C receptor | 30.1 | agonism at 5-HT2C (in words) (5-HT2C receptor [9]): potent partial agonism; 5-HT2C % Act @ Max Dose (5-HT2C receptor [9]): 43.06% |
| CNCCc1cn(C(C)C)c2cc(F)cc(O)c12 [Compound 12, 6-fluoro-1-isopropyl-3-(2-(methylamino)ethyl)-1H-indol-4-ol] | 1.74 |  | 104.0 | > 2.42 | < 15.9 | > 2.42 | < 9.6 | > 100000 | 3.96 | 4.14 | 70.4 | 4.39 | 72.3 | > 1000 | 10.55 | > 1230 | > 10000 | 30.8 | potent binding to the 5-HT2C receptor | 25.3 | agonism at 5-HT2C (in words) (5-HT2C receptor [9]): potent partial agonism; 5-HT2C % Act @ Max Dose (5-HT2C receptor [9]): 57.17% |
